Experimental data published in ChEMBL document CHEMBL5634090, “Design of phenothiazine-based cationic amphiphilic derivatives incorporating arginine residues: Potential membrane-active broad-spectrum antimicrobials combating pathogenic bacteria in vitro and in vivo” (Eur J Med Chem, 2023).
In brackets after ≈: the same amount, converted by molar mass. Several values for one entry are separate records, joined by “and”; a condition that tells them apart may be missing. Equal values may be shown once. Activity calls are given as the source filed them. No cut-off for these calls is given here.

Tests used:
Staphylococcus aureus [1] = assay: Antibacterial activity against methicillin resistant Staphylococcus aureus NCTC 10442 in presence of 1 mmol/L Mg2+ by broth microdilution method; assay type: functional
Pseudomonas aeruginosa [2] = assay: Antibacterial activity against Pseudomonas aeruginosa ATCC 9027 in presence of 19 umol/L Fe2+ by broth microdilution method; assay type: functional
[3] = Selectivity index, ratio of CC50 for cytotoxicity against mouse NCTC clone 929 cells to MIC for antibacterial activity against Klebsiella pneumoniae ATCC 10031; assay type: toxicity, cell-based; settings: read-out: Selectivity Index
Klebsiella pneumoniae [4] = assay: Induction of resistance development in Klebsiella pneumoniae ATCC 10031 assessed as fold increase in MIC treated over 20 serial passages by microdilution assay; assay type: functional
Staphylococcus aureus [5] = assay: Antibiofilm activity against 24 hrs preformed biofilm in Staphylococcus aureus ATCC 29213 assessed as reduction in biofilm viability at 0.39 ug/ml relative to control; assay type: functional; settings: dose 0.39 µg/ml
Klebsiella pneumoniae [6] = assay: Antibacterial activity against Klebsiella pneumoniae ATCC 14581 in presence of 19 umol/L Fe2+ by broth microdilution method; assay type: functional
Staphylococcus aureus [7] = assay: Antibacterial activity against Staphylococcus aureus ATCC 29213 assessed as loss in membrane integrity at 8 times MIC incubated for 4 hrs by LIVE/DEAD BacLight bacterial viability assay; assay type: functional, organism-based; settings: Cell membrane
Pseudomonas aeruginosa [8] = assay: Antibacterial activity against Pseudomonas aeruginosa ATCC 9027 infected in cyclophosphamide immunosuppressed keratitis mouse model assessed as log reduction in number of viable bacterial colonies at 10 mg/ml administrated tropically; assay type: functional
[9] = Selectivity index, ratio of CC50 for cytotoxicity against HEK293 cells to MIC for antibacterial activity against Klebsiella pneumoniae ATCC 14581; assay type: toxicity, cell-based; settings: human, read-out: Selectivity Index
Staphylococcus aureus [10] = assay: Antibacterial activity against methicillin resistant Staphylococcus aureus NCTC 10442 by microbroth dilution assay; assay type: functional
Staphylococcus aureus [11] = assay: Inhibition of biofilm formation in Staphylococcus aureus ATCC 29213 at 6.25 ug/ml by crystal violet staining assay relative to control; assay type: functional
[12] = Selectivity index, ratio of CC50 for cytotoxicity against HEK293 cells to MIC for antibacterial activity against Klebsiella pneumoniae ATCC 10031; assay type: toxicity, cell-based; settings: human, read-out: Selectivity Index
Staphylococcus aureus [13] = assay: Antibacterial activity against methicillin resistant Staphylococcus aureus NCTC 10442 in presence of 20 umol/L Fe2+ by broth microdilution method; assay type: functional
[14] = Cytotoxicity against HEK293 cells assessed as cell survival rate at 25 ug/ml by CCK-8 assay relative to control; assay type: toxicity, cell-based; settings: human, at 25 µg/mL, read-out: Activity
Escherichia coli = assay: Antibacterial activity against Escherichia coli ATCC 25922 in presence of 20 umol/L Fe2+ by broth microdilution method; assay type: functional
[15] = Selectivity index, ratio of CC50 for cytotoxicity against HEK293 cells to MIC for antibacterial activity against Escherichia coli ATCC 25922; assay type: toxicity, cell-based; settings: human, read-out: Selectivity Index
Pseudomonas aeruginosa [16] = assay: Antibacterial activity against Pseudomonas aeruginosa ATCC 9027 in presence of 2.50 mmol/L Ca2+ by broth microdilution method; assay type: functional
Staphylococcus aureus [17] = assay: Induction of resistance development in Staphylococcus aureus ATCC 29213 assessed as fold increase in MIC treated over 20 serial passages by microdilution assay; assay type: functional
Klebsiella pneumoniae [18] = assay: Antibacterial activity against Klebsiella pneumoniae ATCC 10031 by microbroth dilution assay; assay type: functional
Staphylococcus aureus [19] = assay: Antibacterial activity against Staphylococcus aureus ATCC 29213 in presence of 2.5 mmol/L Ca2+ by broth microdilution method; assay type: functional
Klebsiella pneumoniae [20] = assay: Antibiofilm activity against 24 hrs preformed biofilm in Klebsiella pneumoniae ATCC 10031 assessed as reduction in biofilm viability at […] ug/ml relative to control; assay type: functional; settings: dose […] microg/ml; 1.56 ug/mL
Pseudomonas aeruginosa [21] = assay: Antibacterial activity against Pseudomonas aeruginosa ATCC 9027 in presence of 140 mmol/L Na+ by broth microdilution method; assay type: functional
Staphylococcus aureus [22] = assay: Antibacterial activity against methicillin resistant Staphylococcus aureus N315 in presence of 20 umol/L Fe3+ by broth microdilution method; assay type: functional
Klebsiella pneumoniae [23] = assay: Antibacterial activity against Klebsiella pneumoniae ATCC 10031 in presence of 4.5 mmol/L K+ by broth microdilution method; assay type: functional
Klebsiella pneumoniae [24] = assay: Antibacterial activity against Klebsiella pneumoniae ATCC 10031 in presence of 2.5 mmol/L Ca2+ by broth microdilution method; assay type: functional
Staphylococcus aureus [25] = assay: Antibacterial activity against methicillin resistant Staphylococcus aureus N315 in presence of 20 umol/L Fe2+ by broth microdilution method; assay type: functional
[26] = Selectivity index, ratio of CC50 for cytotoxicity against HEK293 cells to MIC for antibacterial activity against Staphylococcus aureus ATCC 29213; assay type: toxicity, cell-based; settings: human, read-out: Selectivity Index
Staphylococcus aureus [27] = assay: Antibacterial activity against methicillin resistant Staphylococcus aureus NCTC 10442 in presence of 20 umol/L Fe3+ by broth microdilution method; assay type: functional
Staphylococcus aureus [28] = assay: Antibacterial activity against methicillin resistant Staphylococcus aureus N315 in presence of 19 umol/L Zn2+ by broth microdilution method; assay type: functional
Staphylococcus aureus [29] = assay: Antibacterial activity against methicillin resistant Staphylococcus aureus N315 in presence of 2.5 mmol/L Ca2+ by broth microdilution method; assay type: functional
[30] = Cytotoxicity against mouse NCTC clone 929 cells assessed as cell survival rate at 50 ug/ml by CCK-8 assay relative to control; assay type: toxicity, cell-based; settings: NCTC clone 929 (L929) cells, at 50 µg/mL, read-out: Activity
Klebsiella pneumoniae [31] = assay: Antibiofilm activity against 24 hrs preformed biofilm in Klebsiella pneumoniae ATCC 10031 assessed as reduction in biofilm viability at 6.25 ug/ml relative to control; assay type: functional; settings: dose 6.25 µg/ml
Staphylococcus aureus [32] = assay: Antibacterial activity against Staphylococcus aureus ATCC 29213 assessed as log reduction in bacterial load at 4 times MIC measured after 2 hrs by time kill assay; assay type: functional
Staphylococcus aureus [33] = assay: Inhibition of biofilm formation in Staphylococcus aureus ATCC 29213 at 12.5 ug/ml by crystal violet staining assay relative to control; assay type: functional
[34] = Selectivity index, ratio of CC50 for cytotoxicity against mouse NCTC clone 929 cells to MIC for antibacterial activity against methicillin resistant Staphylococcus aureus N315; assay type: toxicity, cell-based; settings: read-out: Selectivity Index
[35] = Selectivity index, ratio of CC50 for cytotoxicity against HEK293 cells to MIC for antibacterial activity against Pseudomonas aeruginosa ATCC 9027; assay type: toxicity, cell-based; settings: human, read-out: Selectivity Index
[36] = Cytotoxicity against HEK293 cells by CCK-8 assay; assay type: toxicity, cell-based; settings: human
Staphylococcus aureus [37] = assay: Antibacterial activity against Staphylococcus aureus ATCC 29213 assessed as log reduction in bacterial load at 8 times MIC measured after 2 hrs by time kill assay; assay type: functional
Staphylococcus aureus [38] = assay: Inhibition of biofilm formation in Staphylococcus aureus ATCC 29213 at 0.39 ug/ml by crystal violet staining assay relative to control; assay type: functional
Klebsiella pneumoniae [39] = assay: Antibacterial activity against Klebsiella pneumoniae ATCC 10031 assessed as log reduction in bacterial load at 4 times MIC measured after 2 hrs by time kill assay; assay type: functional
Klebsiella pneumoniae [40] = assay: Inhibition of biofilm formation in Klebsiella pneumoniae ATCC 10031 at 12.5 ug/ml by crystal violet staining assay relative to control; assay type: functional

Work on CCCCCCCN1c2ccccc2Sc2ccc(OCC(=O)N[C@@H](CCCNC(=N)N)C(=O)N[C@@H](CCCNC(=N)N)C(N)=O)cc21 yielded an MIC (Staphylococcus aureus [1]) of 3.12 µg/mL, an MIC (Pseudomonas aeruginosa [2]) of 6.25 µg/mL and a selectivity ratio [3] of 8. It also gave a fold change (FC) (Klebsiella pneumoniae [4]) of less than 4, an Activity (Staphylococcus aureus [5]) of 97.35% and an MIC (Klebsiella pneumoniae [6]) of 3.12 µg/mL. For the same molecule, the Activity (Staphylococcus aureus [7]) was “Active”, the “log(activity)” value (Pseudomonas aeruginosa [8]) was 5.93 and the selectivity ratio [9] was 8. For the same molecule, the MIC (Staphylococcus aureus [10]) was 1.56 µg/mL (≈ 2.28 µM), the inhibition at 6.25 µg/mL (Staphylococcus aureus [11]) was 95.1% and the selectivity ratio [12] was 8. For the same molecule, the MIC (Staphylococcus aureus [13]) was 1.56 µg/mL, the viability at 25 ug/ml [14] was 74.4% and the MIC (Escherichia coli) was 3.12 µg/mL. The selectivity ratio [15] was 8, the MIC (Pseudomonas aeruginosa [16]) was 6.25 µg/mL and the fold change (FC) (Staphylococcus aureus [17]) was less than 4. It also gave an MIC (Klebsiella pneumoniae [18]) of 3.12 µg/mL (≈ 4.58 µM), an MIC (Staphylococcus aureus [19]) of 3.12 µg/mL and an Activity (Klebsiella pneumoniae [20]) of 73.4%. It also gave an MIC (Pseudomonas aeruginosa [21]) of 6.25 µg/mL, an MIC (Staphylococcus aureus [22]) of 1.56 µg/mL and an MIC (Klebsiella pneumoniae [23]) of 3.12 µg/mL. For the same molecule, the MIC (Klebsiella pneumoniae [24]) was 3.12 µg/mL, the MIC (Staphylococcus aureus [25]) was 1.56 µg/mL and the selectivity ratio [26] was 8. For the same molecule, the MIC (Staphylococcus aureus [27]) was 1.56 µg/mL, the MIC (Staphylococcus aureus [28]) was 1.56 µg/mL and the MIC (Staphylococcus aureus [29]) was 3.12 µg/mL. For the same molecule, the viability at 50 ug/ml [30] was 68.1%, the Activity (Klebsiella pneumoniae [31]) was 10.44% and the “log(activity)” value (Staphylococcus aureus [32]) was greater than 3. It also gave an inhibition at 12.5 µg/mL (Staphylococcus aureus [33]) of 96.7%, a selectivity ratio [34] of 8 and a selectivity ratio [35] of 8. For the same molecule, the CC50 [36] was > 50 µg/mL and 73.3 µM, the “log(activity)” value (Staphylococcus aureus [37]) was greater than 3 and the inhibition at 0.39 µg/mL (Staphylococcus aureus [38]) was 5.85%. For the same molecule, the “log(activity)” value (Klebsiella pneumoniae [39]) was greater than 3 and the inhibition at 12.5 µg/mL (Klebsiella pneumoniae [40]) was 93.9%.
